Here are results for two compounds from patent publication US12173330B2, “Method for producing hydroxy-L-pipecolic acid” (API CORPORATION, priority 2015, dated 2024).

The target in test [1] is Colletotrichum gloeosporioides Nara qc5 L-pipecolic acid trans-4-hydroxylase CgPH, SEQ ID NO: 12 (Colletotrichum fructicola, UniProt L2G7W2).
Test [2] deals with Segniliparus rugosus ATCC BAA-974 L-pipecolic acid cis-5-hydroxylase SruPH, SEQ ID NO: 4 (Segniliparus rugosus, UniProt E5XT07). The conditions noted are these: for Vmax: 20 mmol/L 2-oxoglutaric acid, 30° C.; for kcat: calculated from Vmax and molecular weight.
Test [3] relates to Kordia jejudonensis amino acid hydroxylase KjPH, SEQ ID NO: 18. The test is classed as biochemical. As to conditions: for Km / Vmax: 20 mmol/L 2-oxoglutaric acid, 30° C.; for kcat: calculated from Vmax and molecular weight.
The target in test [4] is Sinorhizobium meliloti 1021 L-proline cis-4-hydroxylase SmPH, SEQ ID NO: 10 (Sinorhizobium meliloti, UniProt Q92LF6). The test is classed as biochemical. The conditions noted are these: for kcat: calculated from Vmax and molecular weight.
In test [5] the test system is Micromonospora chokoriensis amino acid hydroxylase McPH (L-pipecolic acid 5-hydroxylase), wild type, SEQ ID NO: 2. Type of test: biochemical.
The target in test [6] is Gibberella zeae PH-1 L-pipecolic acid trans-4-hydroxylase GzPH, SEQ ID NO: 16 (Fusarium graminearum, UniProt I1RHG1).
For test [7], the target named is T1, Xenorhabdus doucetiae FRM16 L-proline cis-4-hydroxylase XdPH, SEQ ID NO: 8 (Xenorhabdus doucetiae, UniProt A0A068QPC1).
T1 sequence (A0A068QPC1 1-294): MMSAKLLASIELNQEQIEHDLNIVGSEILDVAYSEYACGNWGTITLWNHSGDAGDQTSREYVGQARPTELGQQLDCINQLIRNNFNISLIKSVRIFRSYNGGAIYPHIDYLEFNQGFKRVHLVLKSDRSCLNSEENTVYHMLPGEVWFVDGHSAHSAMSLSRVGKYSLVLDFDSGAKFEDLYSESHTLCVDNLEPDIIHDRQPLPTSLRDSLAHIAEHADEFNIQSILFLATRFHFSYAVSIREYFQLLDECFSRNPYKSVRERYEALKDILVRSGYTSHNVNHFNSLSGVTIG
Type of test: biochemical. As to conditions: for kcat: calculated from Vmax and molecular weight.

The target of test [8] is T2, Catenulispora acidiphila NBRC102108 L-proline cis-4-hydroxylase CaPH, SEQ ID NO: 6 (Catenulispora acidiphila, UniProt C7Q927).
T2 sequence (C7Q927 1-290): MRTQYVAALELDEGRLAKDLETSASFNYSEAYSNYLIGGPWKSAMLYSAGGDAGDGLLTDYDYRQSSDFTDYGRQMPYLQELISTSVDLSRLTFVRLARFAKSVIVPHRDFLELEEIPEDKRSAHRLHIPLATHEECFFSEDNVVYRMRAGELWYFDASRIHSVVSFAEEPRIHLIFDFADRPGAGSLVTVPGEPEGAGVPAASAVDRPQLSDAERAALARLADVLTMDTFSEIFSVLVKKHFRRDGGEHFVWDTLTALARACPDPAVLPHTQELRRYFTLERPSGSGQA
The test is classed as biochemical. As to conditions: substrate: L-proline; calculated from Vmax and molecular weight.

The mark [9] stands for this setting: substrate: L-pipecolic acid, 20 mmol/L 2-oxoglutaric acid, 30° C.
Where [10] appears, read: substrate: L-pipecolic acid, calculated from Vmax and molecular weight.
[11] abbreviates: substrate: L-proline, 20 mmol/L 2-oxoglutaric acid, 30° C.

By Km is commonly meant the substrate concentration at which the rate is half of its maximum.

Like-named read-outs stand apart in the source and are kept apart here.

For the compound `O=C(O)[C@@H]1CCCCN1` [L-pipecolic acid], the Vmax is given as 70.42 U/mg-protein in test [1] (setting [9]); 0.05 U/mg-protein in test [2] (substrate: L-pipecolic acid); 0.30 U/mg-protein in test [3] (substrate: L-pipecolic acid); 0.06 U/mg-protein in test [5] (setting [9]); 114.94 U/mg-protein in test [6] (setting [9]). In addition, the kcat in test [1] (setting [10]) is reported as 43.80; in test [2] (substrate: L-pipecolic acid), 0.03; in test [3] (substrate: L-pipecolic acid), 0.16; in test [4] (substrate: L-pipecolic acid) it was 0.02; in test [5] (setting [10]), 0.03; in test [6] (setting [10]), 72.48. The kcat in test [7] (substrate: L-pipecolic acid) is given as 0.64. Moreover, the values for the Km in test [3] (substrate: L-pipecolic acid) and in test [5] (setting [9]) were 490 µM and 240 µM, respectively.
Turning to `O=C(O)[C@@H]1CCCN1` [L-proline], the kcat in test [8] is on record as 0.01; in test [2] (substrate: L-proline) it was 0.07; in test [3] (substrate: L-proline) it was 0.18; in test [4] (substrate: L-proline), 0.03; in test [7] (substrate: L-proline) it was 0.80. The “catalytic reaction efficiency for L-proline relative to that for L-pipecolic acid” value was determined as 0 in test [1] (kcat/Km ratio); 754% in test [2] (kcat/Km ratio); 115% in test [3] (kcat/Km ratio); 114% in test [4] (kcat/Km ratio); 0 in test [5] (kcat/Km ratio); 0 in test [6] (kcat/Km ratio). In addition, the “catalytic reaction efficiency for L-proline relative to that for L-pipecolic acid” value in test [7] (kcat/Km ratio) was 119%. The Vmax in test [2] (substrate: L-proline) is recorded as 0.13 U/mg-protein; in test [3] (substrate: L-proline), 0.34 U/mg-protein; in test [4] (setting [11]), 0.06 U/mg-protein; in test [7] (setting [11]), 1.44 U/mg-protein. Moreover, the Km in test [3] (substrate: L-proline) turned out to be 480 µM.
